Source: US20230190937A1, “IRON COMPLEXES OF ESTERIFIED DERIVATIVES OF NATURAL PRODUCTS, AND METHODS OF USE” (CORNELL UNIVERSITY, priority 2021, published 2023)

Protocol: Preparation of curcumin in coconut oil. To a round bottom flask with a magnetic stir bar, 20 mg of curcumin and 25 mL (23000 mg) of coconut oil were added. The flask was placed in a water bath at 40° C. and the mixture was stirred for 30 min. The sample was then cooled to room temperature and centrifuged to remove non-dissolved residue of curcumin.
(§1) The sample was then cooled to room temperature and used for the next studies.
as §1

SMILES: COc1cc(/C=C/C(=O)CC(=O)/C=C/c2ccc(O)c(OC)c2)ccc1O [curcumin]
- solubility (concentration) in coconut oil: around 0.08 wt %
